Measured values reported in patent publication US8741836B2, “Polypeptides” (Novo Nordisk A/S, priority 2011, dated 2014).
Starred links: 1 amine or outer side, 2 acyl side, 3 side chain; linkers in the order of their positions; H or OH if unused. Positions of bridges follow the written chain, without caps; N, C: chain ends. Residues, ends and D or L forms follow the SMILES beside them. *: point of attachment. C20 diacid = O=C(O)CCCCCCCCCCCCCCCCCCC(=O)*; γGlu = O=C(O)[C@H](CCC(=O)[*:2])N[*:1]

Test: Assay (III) ThT fibrillation assay for physical stability
Assay type: physicochemical
Details: for ThT pH 4.0 lag time: pH 4.0, ThT fibrillation assay
Outline: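 Freshly prepared, pH-adjusted formulations with 1 μM ThT incubated at 37 °C under 960 rpm orbital shaking (1 mm), fluorescence (ex 444, em 485 nm) read every 20 min. […] Peptide content before and after measured by reverse-phase HPLC against pramlintide standard.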

Row | ThT pH 4.0 lag time [h] | ThT pH 4.0 lag time (physical stability in fibrillogenesis assay) [h] | Compound
1 | 29 | – | CC[C@H](C)[C@H](NC(=O)[C@@H]1CCCN1C(=O)CNC(=O)[C@H](Cc1ccccc1)NC(=O)[C@H](CC(N)=O)NC(=O)[C@H](CCC(N)=O)NC(=O)[C@H](CO)NC(=O)[C@H](CO)NC(=O)[C@H](Cc1c[nH]cn1)NC(=O)[C@H](Cc1c[nH]cn1)NC(=O)[C@H](CC(C)C)NC(=O)[C@H](Cc1ccccc1)NC(=O)[C@H](CCC(=O)O)NC(=O)[C@H](C)NC(=O)[C@H](CC(C)C)NC(=O)[C@H](CCCNC(=N)N)NC(=O)[C@H](CCC(N)=O)NC(=O)[C@@H](NC(=O)[C@H](C)NC(=O)[C@@H]1CSSC[C@H](NC(=O)CNC(=O)CC[C@H](NC(=O)CCCCCCCCCCCCCCCCCCC(=O)O)C(=O)O)C(=O)N[C@@H](CC(N)=O)C(=O)N[C@@H]([C@@H](C)O)C(=O)N[C@@H](C)C(=O)N[C@@H]([C@@H](C)O)C(=O)N1)[C@@H](C)O)C(=O)N[C@@H](CC(C)C)C(=O)N1CCC[C@H]1C(=O)N1CCC[C@H]1C(=O)N[C@H](C(=O)N[C@@H](CC(N)=O)C(=O)N[C@H](C(=O)NCC(=O)N[C@@H](CO)C(=O)N[C@@H](CCC(N)=O)C(=O)N[C@H](C(=O)N1CCC[C@H]1C(N)=O)[C@@H](C)O)C(C)C)[C@@H](C)O [Example 137, N-alpha-[(S)-4-Carboxy-4-(19-carboxynonadecanoylamino)butyryl]-[Gly1,Glu14,His17,Gln21,Gln35,Pro37]-pramlintide] ({C20 diacid-γGlu}-GCNTATCATQRLAEFLHHSSQNFGPILPPTNVGSQTP-NH2; disulfide 2-7 (inferred))
2 | >45 | >45 | CC[C@H](C)[C@H](NC(=O)[C@@H]1CCCN1C(=O)CNC(=O)[C@H](Cc1ccccc1)NC(=O)[C@H](CC(N)=O)NC(=O)[C@H](CC(N)=O)NC(=O)[C@H](CO)NC(=O)[C@H](CO)NC(=O)[C@H](Cc1c[nH]cn1)NC(=O)[C@H](CCCNC(=N)N)NC(=O)[C@H](CC(C)C)NC(=O)[C@H](Cc1ccccc1)NC(=O)[C@H](CCC(=O)O)NC(=O)[C@H](C)NC(=O)[C@H](CC(C)C)NC(=O)[C@H](CCCNC(=N)N)NC(=O)[C@H](CCC(N)=O)NC(=O)[C@@H](NC(=O)[C@H](C)NC(=O)[C@@H]1CSSC[C@H](NC(=O)[C@H](Cc2c[nH]cn2)NC(=O)CC[C@H](NC(=O)CCCCCCCCCCCCCCCCCCC(=O)O)C(=O)O)C(=O)N[C@@H](CC(N)=O)C(=O)N[C@@H]([C@@H](C)O)C(=O)N[C@@H](C)C(=O)N[C@@H]([C@@H](C)O)C(=O)N1)[C@@H](C)O)C(=O)N[C@@H](CC(C)C)C(=O)N1CCC[C@H]1C(=O)N1CCC[C@H]1C(=O)N[C@H](C(=O)N[C@@H](CC(N)=O)C(=O)N[C@H](C(=O)NCC(=O)N[C@@H](CO)C(=O)N[C@@H](CC(N)=O)C(=O)N[C@H](C(=O)N1CCC[C@H]1C(N)=O)[C@@H](C)O)C(C)C)[C@@H](C)O [Example 90, N-alpha-[(S)-4-Carboxy-4-(19-carboxynonadecanoylamino)butyryl]-[His1,Glu14,Arg17,Pro37]-pramlintide] ({C20 diacid-γGlu}-HCNTATCATQRLAEFLRHSSNNFGPILPPTNVGSNTP-NH2; disulfide 2-7)
3 | >45 | >45 | CC[C@H](C)[C@H](NC(=O)[C@@H]1CCCN1C(=O)CNC(=O)[C@H](Cc1ccccc1)NC(=O)[C@H](CC(N)=O)NC(=O)[C@H](CC(N)=O)NC(=O)[C@H](CO)NC(=O)[C@H](CO)NC(=O)[C@H](Cc1c[nH]cn1)NC(=O)[C@H](CCCNC(=N)N)NC(=O)[C@H](CC(C)C)NC(=O)[C@H](Cc1ccccc1)NC(=O)[C@H](CCC(=O)O)NC(=O)[C@H](C)NC(=O)[C@H](CC(C)C)NC(=O)[C@H](CCCNC(=N)N)NC(=O)[C@H](CCC(N)=O)NC(=O)[C@@H](NC(=O)[C@H](C)NC(=O)[C@@H]1CSSC[C@H](NC(=O)CNC(=O)CC[C@H](NC(=O)CCCCCCCCCCCCCCCCCCC(=O)O)C(=O)O)C(=O)N[C@@H](CC(N)=O)C(=O)N[C@@H]([C@@H](C)O)C(=O)N[C@@H](C)C(=O)N[C@@H]([C@@H](C)O)C(=O)N1)[C@@H](C)O)C(=O)N[C@@H](CC(C)C)C(=O)N1CCC[C@H]1C(=O)N1CCC[C@H]1C(=O)N[C@H](C(=O)N[C@@H](CC(N)=O)C(=O)N[C@H](C(=O)NCC(=O)N[C@@H](CO)C(=O)N[C@@H](CC(N)=O)C(=O)N[C@H](C(=O)N1CCC[C@H]1C(N)=O)[C@@H](C)O)C(C)C)[C@@H](C)O [Example 88, N-alpha-[(S)-4-Carboxy-4-(19-carboxynonadecanoylamino)butyryl]-[Gly1,Glu14,Arg17,Pro37]-pramlintide] ({C20 diacid-γGlu}-GCNTATCATQRLAEFLRHSSNNFGPILPPTNVGSNTP-NH2; disulfide 2-7)
4 | >45 | – | CC[C@H](C)[C@H](NC(=O)[C@@H]1CCCN1C(=O)CNC(=O)[C@H](Cc1ccccc1)NC(=O)[C@H](CC(N)=O)NC(=O)[C@H](CC(N)=O)NC(=O)[C@H](CO)NC(=O)[C@H](CO)NC(=O)[C@H](Cc1c[nH]cn1)NC(=O)[C@H](Cc1c[nH]cn1)NC(=O)[C@H](CC(C)C)NC(=O)[C@H](Cc1ccccc1)NC(=O)[C@H](CCC(=O)O)NC(=O)[C@H](C)NC(=O)[C@H](CC(C)C)NC(=O)[C@H](CCCNC(=N)N)NC(=O)[C@H](CCC(N)=O)NC(=O)[C@@H](NC(=O)[C@H](C)NC(=O)[C@@H]1CSSC[C@H](NC(=O)[C@H](Cc2c[nH]cn2)NC(=O)[C@H](Cc2c[nH]cn2)NC(=O)[C@H](Cc2c[nH]cn2)NC(=O)CC[C@H](NC(=O)CCCCCCCCCCCCCCCCCCC(=O)O)C(=O)O)C(=O)N[C@@H](CC(N)=O)C(=O)N[C@@H]([C@@H](C)O)C(=O)N[C@@H](C)C(=O)N[C@@H]([C@@H](C)O)C(=O)N1)[C@@H](C)O)C(=O)N[C@@H](CC(C)C)C(=O)N1CCC[C@H]1C(=O)N1CCC[C@H]1C(=O)N[C@H](C(=O)N[C@@H](CC(N)=O)C(=O)N[C@H](C(=O)NCC(=O)N[C@@H](CO)C(=O)N[C@@H](Cc1c[nH]cn1)C(=O)N[C@H](C(=O)N[C@@H](Cc1ccc(O)cc1)C(N)=O)[C@@H](C)O)C(C)C)[C@@H](C)O [Example 31, N-alpha-[(S)-4-Carboxy-4-(19-carboxynonadecanoylamino)butyryl]-His-His-[His1,Glu14,His17,His35]-pramlintide] ({C20 diacid-γGlu}-HHHCNTATCATQRLAEFLHHSSNNFGPILPPTNVGSHTY-NH2; disulfide 4-9)
